Experimental data from US20250163043A1 (TRANSTHERA SCIENCES (NANJING), INC., priority 2021, published 2025).

Key:
CDK9/CycT1 = CDK9/CycT1 (Homo sapiens, UniProt P50750); experiment: ADP-Glo kinase assay on CDK enzymatic activity, CDK9/CycT1; format: biochemical; conditions: 10 concentrations from 10 μM, 4-fold, 60 min room temperature
In short: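 Compounds were tested as 10-point, 4-fold dilutions from 10 μM final, preincubated 10 min at room temperature with kinase, then reacted 60 min with CDK tide substrate and ATP. ADP formed was detected by ADP-Glo luminescence; inhibition was normalised to 1 μM AZD4573 and 0.5% DMSO controls and IC50 fitted.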

[1] = test system: MV-4-11 (human myelomonocytic leukemia cells); experiment: CCK-8 cell proliferation assay, MV-4-11; format: cell-based; conditions: MV4-11, 24 h incubation, 11 concentrations from 5000 nM, 3-fold, read-out: MV-4-11 cell proliferation IC50 (class)
Protocol: Test samples: the compounds of the present invention, having structures shown above.
MV-4-11 (human myelomonocytic leukemia cells) and NCI-H929 (human myeloma cells).
The compounds were dissolved in DMSO and diluted 3-fold in the 96-well plate to obtain stock solutions with 11 concentration gradients. Each cell was inoculated into a 96-well plate, and the diluted compound stock solution was added to the 96-well plate to obtain a series of 11 concentration gradients of compound solutions with final concentrations of 5000 nM starting and 3-fold gradient decreasing, wherein the final DMSO content was […]. There was a medium containing 1‰ DMSO in the negative control well. The treated cells were incubated at 37° C. with 5% CO2 and 95% humidity, wherein MV-4-11 were incubated for 24 h and NCI-H929 for 72 h. After incubation was completed, each well was added with 10 μL of CCK-8 reagent, incubated for 1-3 h at room temperature and placed in the microplate reader, and the absorbance was read at 450 nm.
The inhibition rate was calculated according to the following formula: […]
ODcmpd: compound absorbance; ODpositive: average value of the absorbance of positive control without compound; ODvehicle: average value of the absorbance of solvent vehicle control.
IC50 values were fitted using GraphPad 7.0 based on inhibition rates of compounds at different concentrations.

Chain of CDK9/CycT1 (P50750 whole entry): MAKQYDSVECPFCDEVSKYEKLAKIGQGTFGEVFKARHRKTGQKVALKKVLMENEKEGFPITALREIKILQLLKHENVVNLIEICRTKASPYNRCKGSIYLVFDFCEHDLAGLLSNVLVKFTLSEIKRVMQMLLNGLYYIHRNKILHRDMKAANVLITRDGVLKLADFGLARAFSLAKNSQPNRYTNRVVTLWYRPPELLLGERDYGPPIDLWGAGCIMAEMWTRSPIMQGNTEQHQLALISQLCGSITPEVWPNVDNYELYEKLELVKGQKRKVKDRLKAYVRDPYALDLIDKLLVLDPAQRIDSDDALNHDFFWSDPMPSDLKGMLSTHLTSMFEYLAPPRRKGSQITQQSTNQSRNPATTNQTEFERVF
Chain of CDK9/CycT1 (O60563 whole entry partner): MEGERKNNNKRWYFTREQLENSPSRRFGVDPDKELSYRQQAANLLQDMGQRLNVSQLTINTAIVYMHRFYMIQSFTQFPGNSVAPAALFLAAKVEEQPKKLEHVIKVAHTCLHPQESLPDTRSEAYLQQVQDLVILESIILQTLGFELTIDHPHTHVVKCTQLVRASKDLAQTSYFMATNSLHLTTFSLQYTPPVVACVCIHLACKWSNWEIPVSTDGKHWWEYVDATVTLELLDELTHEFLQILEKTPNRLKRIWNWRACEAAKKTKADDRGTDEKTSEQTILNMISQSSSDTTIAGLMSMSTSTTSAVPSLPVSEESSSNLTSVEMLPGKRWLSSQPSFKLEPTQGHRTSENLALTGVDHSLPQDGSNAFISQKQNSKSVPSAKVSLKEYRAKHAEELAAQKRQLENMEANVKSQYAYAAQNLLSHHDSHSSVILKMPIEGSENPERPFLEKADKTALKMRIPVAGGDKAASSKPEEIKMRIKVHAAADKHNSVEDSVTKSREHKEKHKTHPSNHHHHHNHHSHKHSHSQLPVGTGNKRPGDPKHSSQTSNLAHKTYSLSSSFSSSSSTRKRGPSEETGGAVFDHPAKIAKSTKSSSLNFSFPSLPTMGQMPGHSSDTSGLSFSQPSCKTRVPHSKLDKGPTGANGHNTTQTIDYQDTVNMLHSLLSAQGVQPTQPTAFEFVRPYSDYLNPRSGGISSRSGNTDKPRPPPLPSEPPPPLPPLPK

SMILES | IC50 (CDK9/CycT1) | IC50 [1]
CC(C)Nc1nc(C#N)cc2cnc(N[C@H]3CC[C@@H](O)CC3)nc12 [Compound 125, 2-(((1s,4s)-4-hydroxycyclohexyl)amino)-8-(isopropylamino)pyrido[3,4-d]pyrimidine-6-carbonitrile] | 9 nM | > 1000 nM
CC(C)Nc1nc(C#N)cc2cnc(N[C@H]3CCC[C@H]3N)cc12 [Compound 158, 7-(((1S,2R)-2-aminocyclopentyl)amino)-1-(isopropylamino)-2,6-naphthyridine-3-carbonitrile] | 3 nM | 400 to 1000 nM
CC(C)Nc1nc(C#N)cc2cnc(N[C@]3(C)C[C@@H](N)C3)nc12 [Compound C27, 2-(((1r,3r)-3-amino-1-methylcyclobutyl)amino)-8-(isopropylamino)pyrido[3,4-d]pyrimidine-6-carbonitrile] | 19 nM | > 1000 nM
CCNc1nc(C#N)cc2cnc(N[C@H]3C[C@](C)(N)C3)cc12 [Compound 208, 7-(((1r,3r)-3-amino-3-methylcyclobutyl)amino)-1-(ethylamino)-2,6-naphthyridine-3-carbonitrile] | 7 nM | 400 to 1000 nM
CC(C)Nc1nc(C#N)cc2cnc(N[C@@H]3CCCOC3)nc12 [Compound 117, (R)-8-(isopropylamino)-2-((tetrahydro-2H-pyran-3-yl)amino)pyrido[3,4-d]pyrimidine-6-carbonitrile] | 6 nM | > 1000 nM
CC(C)(C)Nc1nc(C(N)=O)cc2cnc(N[C@H]3C[C@H](N)C3)nc12 [Compound C19, 2-(((1r,3r)-3-aminocyclobutyl)amino)-8-(tert-butylamino)pyrido[3,4-d]pyrimidine-6-carboxamide] | 10 nM | 400 to 1000 nM
N#Cc1cc2cnc(N[C@H]3CCCNC3)cc2c(C2CC2)n1 [Compound 194, (S)-1-cyclopropyl-7-(piperidin-3-ylamino)-2,6-naphthyridine-3-carbonitrile] | 15 nM | > 1000 nM
CC(C)Nc1nc(C#N)cc2cnc(N[C@H]3CC[C@@H](N)CC3)nc12 [Compound 137, 2-(((1s,4s)-4-aminocyclohexyl)amino)-8-(isopropylamino)pyrido[3,4-d]pyrimidine-6-carbonitrile] | 10 nM | > 1000 nM
CC(C)Nc1nc(C#N)cc2cnc(NC3CNC3)nc12 [Compound 129, 2-(azetidin-3-ylamino)-8-(isopropylamino)pyrido[3,4-d]pyrimidine-6-carbonitrile] | 7 nM | > 1000 nM
CC(C)Nc1nc(C#N)cc2cnc(NC3CCCS(=O)(=O)C3)nc12 (centres unmarked) [Compound 121, 2-((1,1-dioxidotetrahydro-2H-thiopyran-3-yl)amino)-8-(isopropylamino)pyrido[3,4-d]pyrimidine-6-carbonitrile] | 14 nM | 400 to 1000 nM
CC(=O)N1CCN([C@H]2C[C@@H](Nc3ncc4cc(C#N)nc(NC(C)C)c4n3)C2)CC1 [Compound C33, 2-(((1s,3s)-3-(4-acetylpiperazin-1-yl)cyclobutyl)amino)-8-(isopropylamino)pyrido[3,4-d]pyrimidine-6-carbonitrile] | 19 nM | > 1000 nM
CC(C)Nc1nc(C#N)cc2cnc(N[C@H]3CCOC3)nc12 [Compound 118, (S)-8-(isopropylamino)-2-((tetrahydrofuran-3-yl)amino)pyrido[3,4-d]pyrimidine-6-carbonitrile] | 12 nM | > 1000 nM
CC(C)(C)Nc1nc(C#N)cc2cnc(NC(=O)[C@H]3CCCNC3)cc12 [Compound 177, (S)—N-(5-(tert-butylamino)-7-cyano-2,6-naphthyridin-3-yl)piperidine-3-carboxamide] | 19 nM | > 1000 nM
